Laboratory results taken from patent publication US4634706A, “Griseolic acid derivatives, and their use as enzyme inhibitors” (Sankyo Company Limited, priority 1983, dated 1987).

Legend:
cAMP PDE = experiment: Phosphodiesterase (PDE) inhibitory activity, cAMP substrate; assay type: biochemical, rat
Protocol: (§1) The test was carried out following essentially the method of A. L. Pichard and Y. U. Chung [Journal of Biological Chemistry, 251, 5726-5737 (1976)]. A crude enzymatic solution derived from rat brains was used as the source of cAMP PDE.
(§2) ^14 C-labeled cAMP was used as the substrate. It was employed in a 0.2M Tris-hydrochloric acid buffer solution (pH 8.0) in an amount sufficient to provide a final concentration of 0.14 μM. "Tris" is tris(hydroxymethyl)aminomethane. The substrate solution was mixed with an appropriate amount of the compound under test dissolved in 2-5 μl of dimethyl sulfoxide and with 20 μl of a snake venom solution and 40 μl of the crude enzyme solution. Sufficient Tris-hydrochloric acid buffer was added to make a total volume of 100 μl. The mixture was allowed to react at 30° C. for 20 minutes. At the end of this time, the reaction mixture was treated with an Amberlite (trade mark) IRP-58 resin and the level of residual adenosine radioactivity in the product was determined.

cGMP PDE = experiment: Phosphodiesterase (PDE) inhibitory activity, cGMP substrate; assay type: biochemical; conditions: cGMP as substrate, crude enzyme from rat brains; read-out: I50 cGMP PDE
Protocol: as §1, §2
The experiment was repeated, except that cyclic guanosine monophosphate (cGMP) was employed as the substrate instead of cAMP. The I50 value against cGMP PDE was also calculated.

blood viscosity = experiment: Improvement in blood viscosity; assay type: in vivo, male Wistar rats; set-up: key to blood viscosity, shear rates without significant rise after ligation: for each shear rate where no significant rise in […] was noted (P<0.05) between the pre-ligation and post-ligation values there is printed a single plus sign (+); ++++: no significant difference in viscosity between the pre-ligation and post-ligation values at any of the four shear rates; conditions: for minimal effective dose: Rattus norvegicus, read-out: dose at which significant improvement (i.e. stabilisation) in blood viscosity was achieved
Protocol: The test animals were male Wistar rats; they were employed in groups of five for each test. The rats were anaesthetized with pentobartibal and simultaneously the test compound was administered orally at the dose specified in Table 5 in a carboxymethyl cellulose suspension. Promptly, an incision was made in the neck and a 0.5 ml blood sample was collected from the jugular vein. The viscosity of this sample was determined by means of a rotational viscometer.
Thirty minutes after oral administration, the common carotid artery was ligated bilaterally. One hour thereafter (i.e. 90 minutes after oral administration), a further 0.5 ml blood sample was collected from the jugular vein and its viscosity was determined in the same manner.
The mean blood viscosity of each test animal and its standard deviation were calculated for each of the four shear rates (37.5, 75, 150 and 375 s^-1) of the rotational viscometer. The pre-ligation and post-ligationvalues of each group (i.e. the change over a period of 60 minutes) were analysed by the statistical t-test. The results are reported in Table 5 as follows: for each shear rate where no significant rise in […] was noted (P<0.05) between the pre-ligation and post-ligation values there is printed a single plus sign (+). Thus, for example, if there was no significant difference in viscosity between the pre-ligation and post-ligation values at any of the four shear rates, the results will be ++++.

rats = experiment: Toxicity (mortality of male Fisher rats, daily doses for four days); assay type: in vivo, male rats of the Fisher strain; conditions: 100 mg/kg daily
Protocol: The compounds under test were griseolic acid and Compounds No. 26 and 51 from the list of compounds of the invention set out hereinabove. The test animals were male rats of the Fisher strain. The rats were employed in groups of five for each test.
The compounds under test were administered at single daily doses of 50 mg/kg or 100 mg/kg throughout the four days of the test.

cerebral blood flow = experiment: Improving cerebral blood flow; assay type: in vivo, rabbit; conditions: 10 mg/kg
Source text: The "duration (T1/2)" is the time in minutes required for the increase in cerebral blood flow to reduce by one half.

erythrocytes = experiment: Effect on recovery of erythrocyte flexibility reduced by acidosis; assay type: in vivo, rat; conditions: 50 mg/kg orally, blood pH 5.1, P < 0.05
Protocol: Mature male rats were employed in this experiment in groups of five for each test. The compound under test was suspended in an aqueous solution of carboxymethylcellulose and administered orally. Two hours after administration, the rats were anaesthetized with pentobarbital and a 5 ml blood sample was taken from the heart. Its pH was adjusted to 5.1 and the sample was allowed to stand. The fluidity of the erythrocytes was tested by a slightly modified version of the method reported in the Journal of Clinical Pathology, 29, 855-858 (1976). Control animals were treated similarly, except that the carboxymethylcellulose solution contained no active compound. The results are reported as the mean values for each group plus or minus the statistical error and the statistical significance was calculated by comparison with the control group.

[1] = test system: righting reflex and spontaneous locomotive activity; experiment: Brain concussive test; assay type: in vivo; conditions: 10 mg/kg intraperitoneally, 17 mice
Protocol: The test compound, suspended in an aqueous solution of carboxymethylcellulose, was administered intraperitoneally to mice. After 30 minutes, a 16 g weight was dropped from a height of 50 cm onto the head of each mouse, and the time was measured for each mouse to recover its righting reflex and spontaneous locomotive activity.
A similar experiment was carried out as a control, using the carboxymethylcellulose solution without any active compound.
The results are reported in Table 6 as the mean time (in seconds) plus or minus the statistical error. There were 20 mice in the control group and 17 mice in the group to which the test compound was administered.

[2] = test system: anoxia-induced cerebral dysfunction; experiment: Promotion of recovery from anoxia-induced cerebral dysfunction (EEG recovery); assay type: in vivo, rat; conditions: breathing terminated 120 seconds
Protocol: In this experiment, the breathing of a rat was terminated for sufficient time for its EEG (electroencephalograph) trace to become flat and the time required for the EEG to show further activity after breathing had restarted was determined.
The rat was immobilized by the administration of pancuronium bromide, and its spontaneous EEG was recorded. After the rat had been roused from anaesthesia, the compound under test suspended in an aqueous solution of carboxymethylcellulose was administered intraperitoneally to the rat. Throughout the experiment, the rat was caused to breathe artificially; 30 minutes after administration of the test compound, artificial breathing was terminated for 120 seconds. After breathing again commenced, the time required for the EEG to recover (the recovery time) was determined.
A control experiment was carried out in which a carboxymethylcellulose suspension alone was administered with no active compound.
The recovery time is reported in the Table in seconds as the mean of the recovery times of all of the animals in the relevant test group plus or minus the statistical error.

[3] = test system: brain of rats with cerebral ischaemia; experiment: Effect on sugar and high energy phosphate metabolism in the brain of rats with cerebral ischaemia; assay type: in vivo, rat; conditions: 1 mg/kg or 10 mg/kg intraperitoneal
Protocol: Cerebral ischaemia was induced in rats and the sugar and high energy phosphate metabolism in the brain was investigated.
Both carotid arteries of the test rats were ligated and, at the same time, the compound under test was administered by intraperitoneal injection. The amounts of sugars and metabolic products thereof (glucose and lactic acid) and high energy phosphate (ATP-adenosine triphosphate) in the brain were determined by the method of Lowry and Passonneau (A flexible system of enzymatic analysis, Academic Press, New York, 1972). When Compound No. 131 was administered at levels of 1 mg/kg or 10 mg/kg, there was observed an increase in glucose levels, a decrease in lactic acid levels and an increase in ATP levels in the rats with cerebral ischaemia.

SMILES: O=C(O)[C@H](O)C1(C(=O)O)C=C2OC(n3cnc4c(S)ncnc43)[C@H](O)C2O1 (some centres unmarked) [Compound No. 54, 6-desamino-6-mercaptogriseolic acid]
- IC50 (cAMP PDE; 0.14 μM 14C-labeled cAMP, pH 8.0, 30° C., 20 minutes, crude enzyme from rat brains, read-out: I50 cAMP PDE): 19 µM
- IC50 (cGMP PDE): 9.1 µM
- minimal effective dose (blood viscosity; oral): ≥ 50 mg/kg

SMILES: Nc1ncnc2c1ncn2C1OC2=CC(C(=O)O)([C@@H](O)C(=O)O)OC2[C@H]1O (some centres unmarked) [Griseolic acid, griseolic acid]
- ability to inhibit cAMP phosphodiesterase (cAMP PDE; in words): has the ability to inhibit the activity of cyclic adenosine monophosphate (cAMP) phosphodiesterase (PDE)
- mortality after day 3 (rats; after day 3): 3/5
- mortality for the first two days (rats; first two days): 0/5
- mortality at the end of the test (rats; four days, male Fisher rats): 3/5

SMILES: CC(=O)OC1C2OC(C(=O)OC(c3ccccc3)c3ccccc3)(C(OC(C)=O)C(=O)OC(c3ccccc3)c3ccccc3)C=C2OC1n1cnc2c(=O)[nH]cnc21 (centres unmarked) [Compound No. 71, dibenzhydryl O^2',O^7' -diacetyl-6-desamino-6-hydroxygriseolate]
- Duration (T 1/2) (cerebral blood flow): > 1 h
- Increase in cerebral blood flow (Vp), ratio to papaverine 1 mg/kg (cerebral blood flow): 3.0
- Total number of passing erythrocytes × 10^9 (erythrocytes): 3.00 ± 0.16 × 10^9

SMILES: CCC(=O)Nc1ncnc2c1ncn2C1OC2=CC(C(=O)OC(c3ccccc3)c3ccccc3)(C(OC(=O)CC)C(=O)OC(c3ccccc3)c3ccccc3)OC2C1OC(=O)CC (centres unmarked) [Compound No. 10, dibenzhydryl N^6,O^2',O^7' -tripropionylgriseolate]
- blood viscosity, shear rates without significant rise after ligation (blood viscosity; 30 mg/kg oral): ++++
- blood viscosity, shear rates without significant rise after ligation (blood viscosity; 50 mg/kg oral): ++++
- minimal effective dose (blood viscosity; oral): ≥ 50 mg/kg

SMILES: Nc1ncnc2c1ncn2C1OC23OC(C(=O)OC(c4ccccc4)c4ccccc4)C(C(=O)OC(c4ccccc4)c4ccccc4)(OC2C1O)C3Br (stereo not drawn) [Compound No. 202, dibenzhydryl 4',7'-anhydro-5'α-bromo-4'α-hydroxygriseolate]
- blood viscosity, shear rates without significant rise after ligation (blood viscosity; 10 mg/kg oral): +
- dose levels at which significant improvement (i.e. stabilisation) in blood viscosity was achieved (blood viscosity; oral, in words): all dose levels
- Recovery time, righting reflex [1]: 20.9 ± 2.9 s
- Recovery time, spontaneous locomotive activity ([1]; P < 0.05): 72.8 ± 15.7 s

SMILES: O=C(Nc1ncnc2c1ncn2C1OC2=CC(C(=O)O)([C@@H](OC(=O)c3ccccc3)C(=O)O)OC2[C@H]1OC(=O)c1ccccc1)c1ccccc1 (some centres unmarked) [Compound No. 131, N^6,O^2',O^7' -tribenzoylgriseolic acid]
- Total number of passing erythrocytes × 10^9 (erythrocytes): 3.30 ± 0.28 × 10^9
- Recovery time ([2]; 10 mg/kg intraperitoneally, n=8): 14.5 ± 1.2 s
- Recovery time ([2]; 30 mg/kg intraperitoneally, n=8, P < 0.05): 13.8 ± 1.3 s
- blood viscosity, shear rates without significant rise after ligation (blood viscosity; 30 mg/kg oral): +
- blood viscosity, shear rates without significant rise after ligation (blood viscosity; 100 mg/kg oral): ++++
- minimal effective dose (blood viscosity; oral): ≥ 30 mg/kg
- ATP levels in brain [3]: increase
- glucose levels in brain [3]: increase
- lactic acid levels in brain [3]: decrease
